Tests used:
Assay type in all cases: in vivo
[1] = system: Echinochloa crus-galli (ECHCG); experiment: Post-emergence herbicidal glasshouse test; settings: evaluated after 13 days, five point scale
Protocol: (§1) Seeds of a variety of test species are sown in standard soil in pots (Lolium perenne (LOLPE), Solanum nigrum (SOLNI), Amaranthus retoflexus (AMARE), Setaria faberi (SETFA), Echinochloa crus-galli (ECHCG), Ipomoea hederacea (IPOHE)). After cultivation for one day (pre-emergence) or after 8 days cultivation (post-emergence) under controlled conditions in a glasshouse (at 24/16° C., day/night; 14 hours light; 65% humidity), the plants are sprayed with an aqueous spray solution derived from the formulation of the technical active ingredient in acetone/water (50:50) solution containing 0.5% Tween 20 (polyoxyethelyene sorbitan monolaurate, CAS RN 9005-64-5). Compounds are applied at 500 g/h unless otherwise stated. The test plants are then grown in a glasshouse under controlled conditions in a glasshouse (at 24/16° C., day/night; 14 hours light; 65% humidity) and watered twice daily. After 13 days for pre and post-emergence, the test is evaluated for the percentage damage caused to the plant. The biological activities are shown in the following table on a five point scale (5=80-100%; 4=60-79%; 3=40-59%; 2=20-39%; 1=0-19%).

Solanum nigrum (SOLNI) [2] = experiment: Post-emergence herbicidal glasshouse test; settings: applied at 250 g/ha, evaluated after 13 days, five point scale
Protocol: as §1

Lolium perenne (LOLPE) [3] = experiment: Post-emergence herbicidal glasshouse test; settings: applied at 250 g/ha, evaluated after 13 days, five point scale
Protocol: as §1

[4] = system: Ipomoea hederacea (IPOHE); experiment: Post-emergence herbicidal glasshouse test; settings: evaluated after 13 days, five point scale
Protocol: as §1

[5] = system: Amaranthus retoflexus (AMARE); experiment: Post-emergence herbicidal glasshouse test; settings: evaluated after 13 days, five point scale
Protocol: as §1

Setaria faberi (SETFA) [6] = experiment: Post-emergence herbicidal glasshouse test; settings: evaluated after 13 days, five point scale
Protocol: as §1

[7] = system: Echinochloa crus-galli (ECHCG); experiment: Pre-emergence herbicidal glasshouse test; settings: evaluated after 13 days, five point scale
Protocol: as §1

Solanum nigrum (SOLNI) [8] = experiment: Pre-emergence herbicidal glasshouse test; settings: applied at 250 g/ha, evaluated after 13 days, five point scale
Protocol: as §1

Lolium perenne (LOLPE) [9] = experiment: Pre-emergence herbicidal glasshouse test; settings: applied at 250 g/ha, evaluated after 13 days, five point scale
Protocol: as §1

[10] = system: Ipomoea hederacea (IPOHE); experiment: Pre-emergence herbicidal glasshouse test; settings: evaluated after 13 days, five point scale
Protocol: as §1

[11] = system: Amaranthus retoflexus (AMARE); experiment: Pre-emergence herbicidal glasshouse test; settings: evaluated after 13 days, five point scale
Protocol: as §1

Setaria faberi (SETFA) [12] = experiment: Pre-emergence herbicidal glasshouse test; settings: evaluated after 13 days, five point scale
Protocol: as §1

Row | Structure (SMILES) | percentage damage caused to the plant, POST Application ECHCG ([1]; applied at 250 g/ha) | percentage damage caused to the plant, POST Application SOLNI (Solanum nigrum (SOLNI) [2]) | percentage damage caused to the plant, POST Application LOLPE (Lolium perenne (LOLPE) [3]) | percentage damage caused to the plant, POST Application IPOHE ([4]; applied at 250 g/ha) | percentage damage caused to the plant, POST Application AMARE ([5]; applied at 250 g/ha) | percentage damage caused to the plant, POST Application SETFA (Setaria faberi (SETFA) [6]; applied at 250 g/ha) | percentage damage caused to the plant, PRE Application ECHCG ([7]; applied at 250 g/ha) | percentage damage caused to the plant, PRE Application SOLNI (Solanum nigrum (SOLNI) [8]) | percentage damage caused to the plant, PRE Application LOLPE (Lolium perenne (LOLPE) [9]) | percentage damage caused to the plant, PRE Application IPOHE ([10]; applied at 250 g/ha) | percentage damage caused to the plant, PRE Application AMARE ([11]; applied at 250 g/ha) | percentage damage caused to the plant, PRE Application SETFA (Setaria faberi (SETFA) [12]; applied at 250 g/ha) | percentage damage caused to the plant, POST Application ECHCG ([1]; applied at 500 g/h) | percentage damage caused to the plant, POST Application IPOHE ([4]; applied at 500 g/h) | percentage damage caused to the plant, POST Application AMARE ([5]; applied at 500 g/h) | percentage damage caused to the plant, POST Application SETFA (Setaria faberi (SETFA) [6]; applied at 500 g/h) | percentage damage caused to the plant, PRE Application ECHCG ([7]; applied at 500 g/h) | percentage damage caused to the plant, PRE Application IPOHE ([10]; applied at 500 g/h) | percentage damage caused to the plant, PRE Application AMARE ([11]; applied) | percentage damage caused to the plant, PRE Application SETFA (Setaria faberi (SETFA) [12]; applied at 500 g/h)
1 | Cn1nnnc1NC(=O)c1cc2cnc(C(F)(F)F)nc2c(-c2ccccc2)c1C(F)(F)F [Compound 1.001] | 5 (5=80-100%) | 5 (5=80-100%) | 4 (4=60-79%) | 5 (5=80-100%) | 5 (5=80-100%) | 5 (5=80-100%) | 5 (5=80-100%) | 5 (5=80-100%) | 1 (1=0-19%) | 4 (4=60-79%) | 5 (5=80-100%) | 3 (3=40-59%) | – | – | – | – | – | – | – | –
2 | Cc1c(C(=O)Nc2nnnn2C)cc2cnc(C(F)(F)F)nc2c1-c1ccccc1 [Compound 1.006] | – | – | – | – | – | – | – | – | – | – | – | – | 5 (5=80-100%) | 5 (5=80-100%) | 5 (5=80-100%) | 5 (5=80-100%) | 2 (2=20-39%) | 3 (3=40-59%) | 5 (5=80-100%) | 5 (5=80-100%)
3 | Cn1nnnc1NC(=O)c1cc2cnc(C(F)(F)F)nc2c(-c2ccccc2)c1Cl [Compound 1.021] | – | – | – | – | – | – | – | – | – | – | – | – | 5 (5=80-100%) | 5 (5=80-100%) | 5 (5=80-100%) | 5 (5=80-100%) | 5 (5=80-100%) | 5 (5=80-100%) | 5 (5=80-100%) | 5 (5=80-100%)
4 | Cn1nnnc1NC(=O)c1cc2cnc(C3CC3)nc2c(-c2ccccc2)c1Cl [Compound 1.028] | – | – | – | – | – | – | – | – | – | – | – | – | 5 (5=80-100%) | 5 (5=80-100%) | 5 (5=80-100%) | 5 (5=80-100%) | 5 (5=80-100%) | 3 (3=40-59%) | 5 (5=80-100%) | 5 (5=80-100%)
5 | CC(C)c1ncc2cc(C(=O)Nc3nnnn3C)c(Cl)c(-c3ccccc3)c2n1 [Compound 1.035] | – | – | – | – | – | – | – | – | – | – | – | – | 5 (5=80-100%) | 5 (5=80-100%) | 5 (5=80-100%) | 5 (5=80-100%) | 5 (5=80-100%) | 4 (4=60-79%) | 5 (5=80-100%) | 5 (5=80-100%)
6 | Cn1nnnc1NC(=O)c1cc2cncnc2c(-c2ccccc2)c1Cl [Compound 1.042] | – | – | – | – | – | – | – | – | – | – | – | – | 5 (5=80-100%) | 5 (5=80-100%) | 5 (5=80-100%) | 5 (5=80-100%) | 5 (5=80-100%) | 5 (5=80-100%) | 5 (5=80-100%) | 5 (5=80-100%)

From patent publication US10194660B2, “Herbicidal compounds” (Syngenta Participations AG, priority 2015, dated 2019)
